Source: patent US10562857B2 (AFASCI, Inc., priority 2015, dated 2020)
“Also recorded” adds a separate entry of the source.

Experiments:
[1] = system: formalin-induced inflammation in mice; experiment: Formalin-induced pain in mice; format: in vivo, mouse; conditions: 30 mg/kg I.P. 30 min before 10% formalin
Experimental: FIG. 8. Effects of EXAMPLE-128 (30 mg/kg, I.P.) or vehicle on formalin-induced inflammation in male mice (C57BL/6, ˜3 months old; n=8 mice per group). The test compound was I.P. administered 30 min prior to local injection of 10% formalin into the left hindpaw (10 μl). Time spent in grooming, licking or biting the injury paw was manually scored immediately following formalin injection in 5-min time bin for 45 min.
Formalin-induced biphasic response, nociception followed by inflammatory pain in a mouse hindpaw, is an acute pain and chemical-induced inflammatory pain model. The EXAMPLE-128 was tested in this model. Mice (C57BL/6, male, ˜2 months old; n=8 mice per treatment group) received a 10 μl intraplantar injection of 10% formalin in saline into the left hindpaw. Pain response scoring includes counts per episode of time of reactions to the pain stimulus as indicated by licks, twitches, raising or shaking of the injected paw.

[2] = system: harmaline-induced tremor in mice; experiment: Harmaline-induced essential tremor model in mice; format: in vivo, mouse
Experimental: FIG. 12. Effects of EXAMPLE-128 on harmaline-induced essential tremor model in mice. Harmaline was dissolved in saline and administrated at 10 mg/kg (S.C.) mice (C57BL/6, male, 3-5 months). Ten minutes after tremors occurred, mice were treated with either EXAMPLE-128 (30 mg/kg, I.P.) or vehicle (2% DMSO in 0.5% HPC).
Harmaline can induce tremors modeling human essential tremor manifested as postural and kinetic tremors (Nahab et al., 2012). Harmaline was dissolved in saline and administrated at 10 mg/kg (s.c.) to mice (C57BL/6, male, 3 months) and the mice were immediately returned to homecage monitor with an piezoelectric sensor operated by the SmartCage™ for continual recordings for 60 min. […] Mice were randomly assigned to be treated with EXAMPLE-128 (3, 10 or 30 mg/kg, I.P.) or vehicle (2% DMSO in 0.5% HPC), starting ten min after tremors began, Tremor episode numbers and each episode's duration were offline human scored.

[3] = system: Ames microsomemutagenicity assay; experiment: Ames microsome mutagenicity assay; format: cell-based
From the text: Moreover, compounds useful in therapeutic formulations may be further screened for undesired side effect activities by utilizing large ancillary pharmacology panel screens, for example, SafetyScreen 44 and the Ames microsomemutagenicity assay (Eurofins-Cerep, US and France).

[4] = system: taxol-induced neuropathic pain model in mice; experiment: Taxol-induced neuropathic pain in mice, von Frey test; format: in vivo, mouse; conditions: taxol 4 mg/kg I.P., 3, 10 or 30 mg/kg I.P.
Experimental: FIG. 6A. Effects of EXAMPLE-115 on taxol (4 mg/kg, I.P.)-induced neuropathic pain model in mice. Mechanical pain thresholds of left hindpaws were assessed using von Frey monofilament test. Each mouse received either EXAMPLE-115 (3, 10 or 30 mg/kg, I.P.) or vehicle (2% DMSO in 0.5% HPC, I.P.; n=8 per group). Injection of taxol lowered mechanical pain thresholds.
FIG. 6B. Effects of EXAMPLE-123 on taxol (4 mg/kg, I.P.)-induced neuropathic pain model in a separate cohort of mice. Mechanical pain thresholds of left hindpaws were assessed using von Frey monofilament test. Each mouse received either EXAMPLE-123 (30 mg/kg, I.P., n=8) or vehicle (2% DMSO in 0.5% HPC, I.P.).
Chemotherapy-induced painful neuropathy is a common side effect associated with chronic treatment with Taxol (paclitaxel) or other anticancer drugs based on cytotoxicity. Taxol or paclitaxel is one of the most popular drugs used for the treatment of various cancers (Chaudhry et al., 1994). The chemotherapy-induced peripheral neuropathy manifests as chronic hyperalgesia and other sensory abnormalities. Taxol (Sigma, 4.0 mg/kg, I.P.) was dissolved in saline containing 5% DMSO (vehicle) and injected to mice (freshly prepared before injection).

SNI rats = experiment: Spared nerve injury (SNI) rats, Hargreaves thermal test; format: in vivo, rat; conditions: 30 mg/kg, 1 mL I.P.
Experimental: FIG. 3A. Spared Nerve Injury (SNI) rats' left hindpaw withdrawal latencies in response to thermal stimulation (Hargreaves test). Each SNI rat received either EXAMPLE-106, 107, or 115, (each 30 mg/kg, 1 mL I.P.), or vehicle (2% DMSO in 0.5% HPC). Sham rats also received vehicle I.P. injections. […] 40 seconds were cutoff in order to prevent tissue damage. The sham-vehicle serves as a positive control (n=8 per treatment group).
In additional examples shown here, the analgesic effects were further evaluated in another rat species. Baseline thermal and mechanical thresholds of male rats (Sprague-Dawley rats, 275 g-325 g, Harlan) were taken prior to surgery; baseline thresholds were measured on the rats' left hindpaws. Thirty-two rats underwent the SNI surgery on their left hind leg; 8 rats underwent surgery without injury of the nerves as a sham group. Two weeks post-surgery, the thermal thresholds of each rat were reassessed. […] Each rat received either EXAMPLE-106, -107, -115 (each 30 mg/kg, 1 mL I.P.), or vehicle (2% DMSO in 0.5% HPC). Thermal and mechanical thresholds were measured at 1, 2, 3, 4, 5, 6, 7, and 8 hours post-treatment/dosing. […] The drug actions started around 1 hour post-injection and peaked between 2 and 3 hours, and the drug effects gradually declined to pre-treatment levels over 6-7 hours (FIGS. 3A and B).

[5] = system: incision-induced pain in mice; experiment: Incision-induced acute pain in mice, von Frey test; format: in vivo, mouse; conditions: 30 mg/kg I.P.
Experimental: FIG. 9. Effects of EXAMPLE-116, -118 or ML218 (a reference compound) on incision-induced acute pain in mice (C57BL/6, male, ˜2 months old; n=8 mice per treatment group). Mechanical pain threshold assessment (von Frey monofilament test) of the mice's incision left hindpaws. Each mouse received either EXAMPLE-116, -118, or ML218 (as a reference compound, each 30 mg/kg, I.P.) or vehicle (2% DMSO in 0.5% HPC, I.P.). Mechanical pain responses were measured at 0.5, 1, 2, 4, and 5 hours after treatment.
To further confirm the Cav3 modulator effects on acute pain and neurogenic inflammatory pain, an incision-pain mode in mice was used. Postoperative pain model induced by a deep incision in the hindpaw produces robust mechanical allodynia (Pogatzki et al., 2003). Mechanical pain thresholds were assessed using von Frey monofilament test of the incised left hindpaws. Each mouse received either EXAMPLE-116, -118, ML218 (as a reference compound, each 30 mg/kg, I.P.) or vehicle (2% DMSO in 0.5% HPC, I.P., n=8 mice per treatment group). Mechanical pain responses were measured at 0.5, 1, 2, 4, and 5 hours after treatment.

CC(C)(C)NC(=O)CN1CCC2(CC1)CC2NC(=O)c1cc(F)cc(Cl)c1 (single isomer, unassigned) [Example 128, (S)—N-(6-(2-(tert-Butylamino)-2-oxoethyl)-6-azaspiro[2.5]octan-1-yl)-3-chloro-5-fluorobenzamide or (R)—N-(6-(2-(tert-Butylamino)-2-oxoethyl)-6-azaspiro[2.5]octan-1-yl)-3-chloro-5-fluorobenzamide]
formalin-induced biphasic pain response [1]: produced inhibition of both phases | total tremor occurring time in 60 minutes ([2]; harmaline 10 mg/kg S.C., 30 mg/kg I.P.): significantly reduced the total tremor occurring time | total time spent in tremors ([2]; harmaline 10 mg/kg s.c., 3, 10 or 30 mg/kg I.P.): significantly reduced the total time spent in tremors in a dose-dependent manner | mutagenicity [3]: lack of mutagenicity

O=C(Nc1nnc(-c2ccccc2)o1)c1ccc(Cl)s1 [Example 115, 5-Chloro-N-(5-phenyl-1,3,4-oxadiazol-2-yl)thiophene-2-carboxamide]
mechanical pain threshold, taxol-induced neuropathic pain [4]: produced significant effects on Taxol-induced pain compared to vehicle in a dose-dependent manner; also recorded: reversed the taxol-induced neuropathic pain in a dose-dependent manner | left hindpaw withdrawal latency to thermal stimulation (hyperalgesia) (SNI rats): elevated both thermal and mechanical thresholds; also recorded: reduced hyperalgesia

CC(C)(C)CCN1C[C@@H]2[C@@H](CNC(=O)c3cc(Cl)cc(Cl)c3)[C@@H]2C1 [ML218, 3,5-Dichloro-N-[[(1α,5α,6-exo,6α)-3-(3,3-dimethylbutyl)-3-azabicyclo[3.1.0]hex-6-yl]methyl]benzamide, reference compound]
mechanical pain threshold, incision-induced pain [5]: inhibited incision-induced inflammatory pain
